These results are taken from publication PMC8835363, “Arachidin-1, a Prenylated Stilbenoid from Peanut, Induces Apoptosis in Triple-Negative Breast Cancer Cells” (International Journal of Molecular Sciences, 2022).

Data set [1] has as its system UDP-glucuronosyltransferases. The following applies: in vitro metabolism; cited from earlier work.
The subject of another data set is MDA-MB-436 cells. As to the kind of experiment: RealTime-Glo MT cell viability (cytotoxicity) assay. The note with it: MDA-MB-436. In kind it is cell-based, human. How it is done: (§1) The cytotoxicity of RES, A-1, and A-3 was measured using the RealTime-Glo^TM MT Cell Viability Assay (Promega, Madison, WI, USA). The cells (10,000 cells/well) were seeded into 96-well plates. […] Cells with 0.1% DMSO (ATCC; Manassas, VA, USA) were included as a control. Luminescence was measured every 12 h for 72 total hours in a Cytation^TM 5 (BioTek, Winooski, VT, USA) plate reader. All experiments were performed in triplicates.

A further data set deals with MDA-MB-231 cells. The description is as above. The following applies: MDA-MB-231; for IC50: Homo sapiens. In kind it is cell-based, human. As for the experimental part: as §1
Data set [2] has as its system human leukemia HL-60 cell line. Details: method as in PMID 21067217. The following applies: 72 h treatment; cited from earlier work.
The subject of another data set is MDA-MB-231. Details: method as in PMID 32721999, PMID 33643572. The note with it: 24 h treatment, MTT assay; cited from earlier work. On the technique in general: Tetrazolium dyes change colour on reduction, which living cells bring about.
Another data set concerns MCF-7 cells. Details: method as in PMID 32721999, PMID 33643572. The note with it: cited from earlier work.
The mark [3] stands for this setting: Homo sapiens, MDA-MB-436, 24 h, 24 h.
The mark [4] stands for this setting: Homo sapiens, MDA-MB-436, 24 h, 24 h, in Figure 2 panels.
The mark [5] stands for this setting: Homo sapiens, MDA-MB-436, 48 h, 48 h.
Where [6] appears, read: Homo sapiens, MDA-MB-436, 72 h, 72 h.
Setting [7] is: MDA-MB-231, 24 h, 24 h, in Figure 2 panels.
The mark [8] stands for this setting: MDA-MB-231, 24 h, 24 h of treatment.
[9] abbreviates: MDA-MB-231, 48 h, 48 h of treatment.
The mark [10] stands for this setting: MDA-MB-231, 72 h, 72 h of treatment.

Structures are written as SMILES. Like-named read-outs stand apart in the source and are kept apart here.

Usually IC50 stands for the concentration that inhibits the measured activity by half. Take `CC(C)/C=C/c1c(O)cc(/C=C/c2ccc(O)cc2)cc1O` [A-3, arachidin-3]: the “glucuronidated products compared to non-prenylated analogs piceatannol and RES” value in data set [1] was “lower glucuronidated products”. Also, the IC50 came out at 11 µM in the data set with MDA-MB-436 cells (setting [3]); 10.9 µM with MDA-MB-436 cells (setting [4]); 16.7 µM in the data set on MDA-MB-436 cells (setting [5]); 19.8 µM in the data set with MDA-MB-436 cells (setting [6]); 19.8 µM in the data set on MDA-MB-436 cells (72 h); 9.51 µM with MDA-MB-231 cells (setting [7]). Moreover, the IC50 is 18.7 µM in the data set on MDA-MB-231 cells (setting [8]), 16.2 µM in the data set on MDA-MB-231 cells (setting [9]), 18.7 µM in the data set on MDA-MB-231 cells (setting [10]) and 18.9 µM in data set [2]. The “growth inhibition at low concentrations” value in the data set with MDA-MB-436 cells (0.01-10 µM, 72 h) is listed as “no growth inhibition below 10 µM”; with MDA-MB-231 cells (0.01-10 µM, 72 h) it was “no growth inhibition below 10 µM”.

Consider `Oc1ccc(/C=C/c2cc(O)cc(O)c2)cc1` [RES, resveratrol, reference compound], for which the IC50 with MDA-MB-231 was 144 µM; in the data set with MCF-7 cells (24 h treatment) it was 131 µM; with MCF-7 cells (48 h treatment) it was 83.9 µM; in the data set on MDA-MB-436 cells (setting [3]), 37.5 µM; with MDA-MB-436 cells (setting [4]), 9.16 µM; in the data set with MDA-MB-436 cells (setting [5]), 23.7 µM. For the same compound, the IC50 in the data set with MDA-MB-436 cells (setting [6]) came out at 15.7 µM; with MDA-MB-231 cells (setting [7]) it was 6.27 µM; with MDA-MB-231 cells (setting [8]) it was 32.1 µM; with MDA-MB-231 cells (MDA-MB-231, 48 h, 48 h, in Figure 2 panels), 11.5 µM; with MDA-MB-231 cells (setting [9]) it was 6.54 µM; in the data set with MDA-MB-231 cells (setting [10]), 10.8 µM. The IC50 in data set [2] was 17.6 µM.
